Data reported in ChEMBL document CHEMBL1128191, “1-(1-[4-[(N-acetyl-4-piperidinyl)oxy]-2-methoxybenzoyl]piperidin-4-yl)-4H-3,1-benzoxazin-2(1H)-one (L-371,257): a new, orally bioavailable, non-peptide oxytocin antagonist” (J Med Chem, 1995).

How the values were obtained:
Vasopressin V1a receptor [1] = biological target: T1, Vasopressin V1a receptor (Rattus norvegicus, UniProt P30560); test: Binding affinity was evaluated by measuring the displacement of [3H]AVP (arginine vasopressin) from specific binding sites in rat liver
T1 sequence (P30560 whole entry): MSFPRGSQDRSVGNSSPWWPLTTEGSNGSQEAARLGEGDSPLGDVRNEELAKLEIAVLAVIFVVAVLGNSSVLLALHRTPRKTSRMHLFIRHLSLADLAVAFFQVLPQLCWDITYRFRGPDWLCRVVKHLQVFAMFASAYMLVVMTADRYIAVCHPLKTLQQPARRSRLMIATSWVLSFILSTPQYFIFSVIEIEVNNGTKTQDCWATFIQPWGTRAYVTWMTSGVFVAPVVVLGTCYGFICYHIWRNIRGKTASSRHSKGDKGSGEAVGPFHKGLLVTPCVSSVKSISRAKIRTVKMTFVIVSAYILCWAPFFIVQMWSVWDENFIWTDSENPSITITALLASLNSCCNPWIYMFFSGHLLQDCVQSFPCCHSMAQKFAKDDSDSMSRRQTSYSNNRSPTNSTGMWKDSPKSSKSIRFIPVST

Oxytocin receptor [2] = biological target: T2, Oxytocin receptor (Homo sapiens, UniProt P30559); test: Binding affinity was evaluated by measuring the displacement of [3H]OT (oxytocin) from specific binding sites in uterine tissue obtained from human
T2 sequence (P30559 whole entry): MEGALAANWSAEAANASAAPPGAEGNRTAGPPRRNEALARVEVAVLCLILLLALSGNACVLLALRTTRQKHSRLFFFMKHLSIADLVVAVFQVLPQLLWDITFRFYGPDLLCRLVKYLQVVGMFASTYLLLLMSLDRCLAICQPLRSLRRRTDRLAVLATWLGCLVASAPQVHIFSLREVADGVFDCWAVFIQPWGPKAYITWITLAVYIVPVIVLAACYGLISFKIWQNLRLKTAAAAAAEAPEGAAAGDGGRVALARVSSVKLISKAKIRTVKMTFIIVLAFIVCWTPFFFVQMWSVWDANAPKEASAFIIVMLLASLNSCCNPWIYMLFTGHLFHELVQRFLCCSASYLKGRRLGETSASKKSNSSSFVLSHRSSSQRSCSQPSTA

Vasopressin V1a receptor [3] = biological target: T3, Vasopressin V1a receptor (Homo sapiens, UniProt P37288); test: Binding affinity was evaluated by measuring the displacement of [3H]AVP (arginine vasopressin) from specific binding sites in human platelets
T3 sequence (P37288 whole entry): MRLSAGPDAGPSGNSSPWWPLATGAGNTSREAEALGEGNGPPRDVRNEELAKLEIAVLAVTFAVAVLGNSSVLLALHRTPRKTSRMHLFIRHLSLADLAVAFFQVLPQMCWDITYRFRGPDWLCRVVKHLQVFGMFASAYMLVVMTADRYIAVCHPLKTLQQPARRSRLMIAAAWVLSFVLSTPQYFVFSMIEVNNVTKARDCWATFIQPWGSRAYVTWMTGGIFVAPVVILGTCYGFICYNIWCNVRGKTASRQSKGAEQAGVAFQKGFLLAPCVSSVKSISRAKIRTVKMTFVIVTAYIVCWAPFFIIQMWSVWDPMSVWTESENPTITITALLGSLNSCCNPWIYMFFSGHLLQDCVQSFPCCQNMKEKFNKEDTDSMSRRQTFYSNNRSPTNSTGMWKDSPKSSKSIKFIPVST

Oxytocin receptor [4] = biological target: T4, Oxytocin receptor (Rattus norvegicus, UniProt P70536); test: Binding affinity was evaluated by measuring the displacement of [3H]-OT (oxytocin) from specific binding sites in uterine tissue obtained from rats
T4 sequence (P70536 whole entry): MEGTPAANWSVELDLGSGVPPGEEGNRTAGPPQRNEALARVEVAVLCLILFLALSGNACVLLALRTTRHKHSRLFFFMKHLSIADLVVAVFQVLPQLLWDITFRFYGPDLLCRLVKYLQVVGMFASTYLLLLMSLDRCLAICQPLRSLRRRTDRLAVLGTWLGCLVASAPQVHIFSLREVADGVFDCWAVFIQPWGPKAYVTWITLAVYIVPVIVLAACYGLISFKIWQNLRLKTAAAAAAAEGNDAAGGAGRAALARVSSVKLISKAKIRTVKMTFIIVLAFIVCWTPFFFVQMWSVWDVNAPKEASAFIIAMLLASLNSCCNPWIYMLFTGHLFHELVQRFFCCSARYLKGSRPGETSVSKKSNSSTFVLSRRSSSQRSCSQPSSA

Vasopressin V2 receptor [5] = biological target: T5, Vasopressin V2 receptor (Rattus norvegicus, UniProt Q00788); test: Binding affinity was evaluated by measuring the displacement of [3H]-AVP (arginine vasopressin) from specific binding sites in kidney medulla obtained from rats; format: tissue-based
T5 sequence (Q00788 whole entry): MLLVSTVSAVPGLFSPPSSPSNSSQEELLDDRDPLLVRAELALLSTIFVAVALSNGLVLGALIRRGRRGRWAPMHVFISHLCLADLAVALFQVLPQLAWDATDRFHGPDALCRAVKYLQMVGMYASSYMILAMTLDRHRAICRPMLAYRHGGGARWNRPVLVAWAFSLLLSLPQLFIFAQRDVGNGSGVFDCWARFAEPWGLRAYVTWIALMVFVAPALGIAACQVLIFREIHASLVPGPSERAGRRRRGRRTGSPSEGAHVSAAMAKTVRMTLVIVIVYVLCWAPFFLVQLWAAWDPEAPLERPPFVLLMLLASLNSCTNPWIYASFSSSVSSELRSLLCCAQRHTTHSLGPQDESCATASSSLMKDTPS

Oxytocin receptor [6] = biological target: T2, Oxytocin receptor; test: Binding affinity was evaluated by measuring the displacement of [3H]-OT (oxytocin) from specific binding sites in uterine tissue obtained from human.
Vasopressin V1a receptor [7] = biological target: T1, Vasopressin V1a receptor; test: Binding affinity was evaluated by measuring the displacement of [3H]AVP (arginine vasopressin) from specific binding sites in rat liver.
Vasopressin V1a receptor [8] = biological target: T3, Vasopressin V1a receptor; test: Binding affinity was evaluated by measuring the displacement of [3H]AVP (arginine vasopressin) from specific binding sites in human platelets.
Vasopressin V2 receptor [9] = biological target: T5, Vasopressin V2 receptor; test: Binding affinity was evaluated by measuring the displacement of [3H]AVP (arginine vasopressin) from specific binding sites in kidney medulla obtained from rats.; format: tissue-based
Vasopressin V2 receptor [10] = biological target: T6, Vasopressin V2 receptor (Homo sapiens, UniProt P30518); test: Binding affinity was evaluated by measuring the displacement of [3H]AVP (arginine vasopressin) from specific binding sites in kidney medulla obtained from early postmortem human donors.; format: tissue-based
T6 sequence (P30518 whole entry): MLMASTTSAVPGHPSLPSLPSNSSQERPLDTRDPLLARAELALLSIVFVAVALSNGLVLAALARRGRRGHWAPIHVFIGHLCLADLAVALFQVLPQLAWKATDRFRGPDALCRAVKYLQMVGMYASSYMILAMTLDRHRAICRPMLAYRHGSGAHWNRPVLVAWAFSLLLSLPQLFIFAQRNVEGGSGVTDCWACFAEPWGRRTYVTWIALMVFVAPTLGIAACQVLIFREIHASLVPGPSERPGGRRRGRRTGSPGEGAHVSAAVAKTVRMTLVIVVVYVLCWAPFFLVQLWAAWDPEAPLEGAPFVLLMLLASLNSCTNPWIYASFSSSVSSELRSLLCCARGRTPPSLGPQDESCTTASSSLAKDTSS

Vasopressin V2 receptor [11] = biological target: T6, Vasopressin V2 receptor; test: Binding affinity was evaluated by measuring the displacement of [3H]-AVP (arginine vasopressin) from specific binding sites in kidney medulla obtained from early postmortem human donors; format: tissue-based

## CC(=O)N1CCCC(COc2ccc(C(=O)N3CCC(N4C(=O)OCc5ccccc54)CC3)cc2)C1 (stereo not given)
Vasopressin V1a receptor [1]
  Ki: 0.024 µM
Oxytocin receptor [2]
  Ki: 0.2 µM
Vasopressin V1a receptor [3]
  Ki: 38 µM
Oxytocin receptor [4]
  Ki: 0.34 µM
Vasopressin V2 receptor [5]
  Ki: 11 µM

## CC(=O)N1CCC(Oc2ccc(C(=O)N3CCC(N4C(=O)OCc5ccccc54)CC3)cc2)CC1
Vasopressin V1a receptor [1]
  Ki: 0.0056 µM
Oxytocin receptor [2]
  Ki: 0.024 µM
Vasopressin V1a receptor [3]
  Ki: 12 µM
Oxytocin receptor [4]
  Ki: 0.069 µM
Vasopressin V2 receptor [5]
  Ki: 35 µM

## CC(=O)NCCCOc1ccc(C(=O)N2CCC(N3C(=O)NCc4ccccc43)CC2)cc1
Oxytocin receptor [6]
  Ki: 2.1 µM
Vasopressin V1a receptor [7]
  Ki: > 1 µM
Oxytocin receptor [4]
  Ki: 2.4 µM
Vasopressin V1a receptor [8]
  Ki: 62 µM
Vasopressin V2 receptor [9]
  Ki: > 3 µM

## CC(=O)NCCCOc1ccc(C(=O)N2CCC(N3C(=O)OCc4ccccc43)CC2)cc1
Oxytocin receptor [6]
  Ki: 0.13 µM
Vasopressin V1a receptor [7]
  Ki: 0.031 µM
Oxytocin receptor [4]
  Ki: 0.2 µM
Vasopressin V1a receptor [8]
  Ki: 36 µM
Vasopressin V2 receptor [9]
  Ki: 35 µM

## CC(=O)NCCCOc1ccc(C(=O)N2CCC(N3C(=O)CCc4ccccc43)CC2)cc1
Oxytocin receptor [6]
  Ki: 0.17 µM
Vasopressin V2 receptor [10]
  Ki: > 81 µM
Vasopressin V1a receptor [7]
  Ki: 0.032 µM
Oxytocin receptor [4]
  Ki: 0.23 µM
Vasopressin V1a receptor [8]
  Ki: 52 µM
Vasopressin V2 receptor [9]
  Ki: > 30 µM

## COc1cc(OC2CCN(C(C)=O)CC2)ccc1C(=O)N1CCC(N2C(=O)OCc3ccccc32)CC1
Vasopressin V1a receptor [1]
  Ki: 0.0037 µM
Oxytocin receptor [2]
  Ki: 0.0046 µM
Vasopressin V1a receptor [3]
  Ki: 3.2 µM
Vasopressin V2 receptor [11]
  Ki: 37 µM
Vasopressin V2 receptor [5]
  Ki: > 30 µM

## CC(=O)N1CCCCC1CCOc1ccc(C(=O)N2CCC(N3C(=O)OCc4ccccc43)CC2)cc1 (stereo not given)
Vasopressin V1a receptor [1]
  Ki: 0.015 µM
Oxytocin receptor [2]
  Ki: 0.15 µM
Vasopressin V1a receptor [3]
  Ki: 22 µM
Vasopressin V2 receptor [5]
  Ki: 11 µM
